We go through 32 compounds from the Deep4Chem optical property database.

Where “and” joins values, the source holds several entries; their conditions need not be identical. Equal values may be shown once.

This series can be described thus: solvent given as SMILES.

As to `CCCCN(CCCC)c1ccc(/C=C/c2ccc(-c3ccc(/C=C/c4ccc(N(CCCC)CCCC)cc4)cc3)cc2)cc1`, the absorption maximum reads like this: (in CS(C)=O) 412.9 nm; (in Cc1ccccc1) 399.3 nm.

In the case of `COc1c(C(C)=O)c(=O)oc2cc(N(C)C)ccc12`, the absorption maximum (in ClCCl) came out at 373 nm.

With `C[Si]1(C)O[Si](C)(C)c2cc3c(-c4ccccc4)c4cc(Cl)ccc4nc3cc21`, under “in ClCCl”, the absorption maximum is recorded as 376 nm.

For `C(=C\c1cccnc1)/c1ccc(Nc2ccccc2)cc1`, the absorption maximum stood at 358 nm (in CC#N) and 352 nm (in CCCCCC).

In turn, `N#Cc1cc2ccc([O-])cc2oc1=O` came in with an absorption maximum (in O) of 408 nm.

Consider `CC(=O)Nc1ccc2c3cccc4cccc(c5cccc1c52)c43`, for which the absorption maximum was determined as 447 nm (in C1COCCO1), 441 nm (in CC#N), 453 nm (in CCCCOCCCC) and 451 nm (in CCOC(C)=O).

The compound `O=C1c2ccccc2C2=Nc3ccc4ccccc4[n+]3[B-](F)(F)N12` yielded an absorption maximum (in ClCCl) of 387 nm.

For the setting “in ClCCl”, `CCCCCCNC(=O)c1sc(-c2ccc(-c3cc(-c4ccc(C(C)(C)C)cc4)c(C(=O)NCCCCCC)s3)s2)cc1-c1ccc(C(C)(C)C)cc1` gave an absorption maximum of 392 nm.

In the case of `c1ccc(-c2ccc(-c3cc(-c4ccccn4)nc(-c4ccccn4)c3)cc2)cc1`, for the setting “in ClCCl”, the absorption maximum is listed as 291 nm.

Take `FC(F)(F)C(F)(F)C(F)(F)C1=NC2=C(c3ccc4ccc5cccc6ccc3c4c56)C=C3c4cc(-c5ccc6ccc7cccc8ccc5c6c78)c5nc(C(F)(F)C(F)(F)C(F)(F)F)nc6c(-c7ccc8ccc9cccc%10ccc7c8c9%10)cc(c4c56)=C4C=C(c5ccc6ccc7cccc8ccc5c6c78)C(=N1)C2C34` (stereo unspecified): the absorption maximum is, setting by setting: (in C1CCOC1) 524 nm; (in Cc1ccccc1) 560 nm.

The compound `CCC1=C(C)C(=O)n2c1cc1c(C)cc(C)n1c2=O` gave an absorption maximum (in CC#N) of 409 nm; an absorption maximum (in CC(C)=O) of 412 nm; an absorption maximum (in CO) of 420 nm; an absorption maximum (in CS(C)=O) of 420 nm; an absorption maximum (in ClC(Cl)Cl) of 420 nm; an absorption maximum (in c1ccccc1) of 423 nm.

In turn, `CCn1c2ccccc2c2cc(-c3cc(-c4ccc5c(c4)c4ccccc4n5CC)nc(S(C)(=O)=O)n3)ccc21` yielded an absorption maximum (in C1CCOC1) of 381 nm; an absorption maximum (in CCOC(C)=O) of 378 nm; an absorption maximum (in CN(C)C=O) of 384 nm; an absorption maximum (in Cc1ccccc1) of 382 nm; an absorption maximum (in ClCCl) of 384 nm.

As for `N#Cc1ccc(-n2nc(C#N)c(N3CCCC3)n2)cc1`, the absorption maximum (in CC#N) was 362 nm.

Under “in ClC(Cl)Cl”, `CCCCCCN1C(=O)c2cccc3c(-c4cc5ccccc5s4)ccc(c23)C1=O` gave an absorption maximum of 378 nm.

As to `O=Cc1ccc(N(c2ccc(C=O)cc2)c2ccc(-c3ccc4c(c3)C(=O)c3ccccc3C4=O)cc2)cc1`, the absorption maximum runs as follows: (in C1CCOC1) 374 nm; (in CCCCCC) 368 nm; (in CCOC(C)=O) 371 nm; (in CCOCC) 369 nm; (in Cc1ccccc1) 376 nm; (in ClC(Cl)(Cl)Cl) 376 nm. Also, the absorption maximum (in ClCCl) is given as 379 nm.

Regarding `CC(C)(C)c1ccc2c(c1)c1cc(C(C)(C)C)ccc1n2-c1ccc2oc3nc4oc5ccc(C(F)(F)F)cc5c4cc3c2c1`, the absorption maximum turned out to be 343 nm (in C1CCCCC1); 338 nm (in C1CCOC1); 336 nm (in CC#N); 337 nm (in CS(C)=O); 343 nm (in Cc1ccccc1); 345 nm (in ClC(Cl)Cl).

`c1ccc(-c2cc(-c3ccc(N4c5ccccc5C(c5ccccc5)(c5ccccc5)c5ccccc54)cc3)nc(-c3ccccc3)n2)cc1`: under “in Cc1ccccc1”, the absorption maximum turned out to be 368.88 nm.

As to `Cc1nc(-c2ccccc2)c2ccccn12`, the absorption maximum worked out at 374 nm (in C1CCCCC1); 364 nm (in CC#N); 354 nm (in CO); 367 nm (in ClCCl); 338 nm (in O).

Turning to `CCN=C=S`, the absorption maximum (in CCCCCC) is given as 250 nm.

Consider `C(=C\c1nc2ccccc2[nH]1)/c1ccc(-c2nc3c4cccnc4c4ncccc4c3[nH]2)cc1`, for which the absorption maximum stood at 381 nm (in C1CCOC1), 376 nm (in CC#N), 375 nm (in CO) and 382 nm (in ClCCl).

As for `c1ccc(-c2nc(-c3ccccc3)c(N(c3ccccc3)c3ccccc3)s2)cc1`, the absorption maximum (in ClC(Cl)Cl) is reported as 367 nm.

On to `Cc1cc(=O)oc2c1cc(Br)c1occ(C)c12`, for which the absorption maximum by setting is: (in C1CCCCC1) 333 nm; (in CCO) 330 nm.

Turning to `O=C1Cc2cc3c(cc2CCCc2ccc(cc2)CCC3)CC(=O)Cc2ccc(c3nsnc23)C1`, the absorption maximum is recorded as 401 nm (in C1CCCCC1), 404 nm (in CC#N) and 404 nm (in ClC(Cl)Cl).

The compound `CN(C)c1ccc(N2c3sc4ccccc4c3Sc3c2sc2ccccc32)cc1` showed an absorption maximum (in ClCCl) of 430 nm.

Where the note is “in ClC(Cl)Cl”, `CCCCCCCCN1C(=O)c2ccc3c4c(-c5ccc(N(c6ccccc6)c6ccccc6)cc5)cc5c6c(cc(-c7ccc(N(c8ccccc8)c8ccccc8)cc7)c(c7ccc(c2c37)C1=O)c64)C(=O)N(CCCCCCCC)C5=O` returned an absorption maximum of 606 nm.

For `Cc1nc2cccc(-c3nc4ccccc4[nH]3)c2c(=O)[nH]1`, the absorption maximum (in CN(C)C=O) amounted to 313 nm.

For `CCC1(CC)c2cc(/C=C/c3cc(Br)c(/C=C/c4ccc5c(c4)C(CC)(CC)c4cc(N6c7ccccc7Sc7ccccc76)ccc4-5)cc3Br)ccc2-c2ccc(N3c4ccccc4Sc4ccccc43)cc21`, the absorption maximum is recorded as 439.91 nm (in C1CCOC1); 435.81 nm (in CC#N); 433.42 nm (in CCCCCC); 439.91 nm (in Cc1ccccc1); 426 nm (in ClCCl).

For the setting “in ClCCl”, `c1ccc(N2N=C(c3ccc4ccc5cccc6ccc3c4c56)CC2c2ccc3ccc4cccc5ccc2c3c45)cc1` (stereo unspecified) had an absorption maximum of 422 nm.

On to `C(=C\c1c[nH]cn1)/c1cc[n+]2ccc(/C=C/c3c[nH]cn3)cc2c1`, for which, under “in CO”, the absorption maximum is given as 430 nm.

In turn, `CCN(CC)c1ccc2cc(/C=C/C(=C(C#N)C#N)c3ccc(N(c4ccccc4)c4ccccc4)cc3)c(=O)oc2c1` returned an absorption maximum (in CC(C)=O) of 516 nm; an absorption maximum (in CCOC(C)=O) of 507 nm; an absorption maximum (in CN(C)C=O) of 528 nm; an absorption maximum (in CS(C)=O) of 536 nm; an absorption maximum (in Cc1ccccc1) of 493 nm; an absorption maximum (in ClCCl) of 518 nm.

With `CCN(CC)c1ccc2c(C)cc(=O)oc2c1`, the absorption maximum by setting is: (in C1CCCCC1) 350 nm; (in CC#N) 367 nm; (in CCCCCCCCO) 373 nm; (in CCCCCCO) 373 nm; (in CCCCO) 374 nm; (in CCCO) 376 nm. Besides, the absorption maximum reads like this: (in CCO) 376 nm and 435 nm and 373 nm; (in CCOC(C)=O) 361 nm; (in OCC(O)CO) 384 nm.

On to `CCCCCCCCN1c2ccc(C#Cc3ccc(C(F)(F)F)cc3)cc2Sc2cc(C=O)ccc21`, for which the absorption maximum (in C1CCOC1) is 384.01 nm; the absorption maximum (in CC#N) was 380 nm; the absorption maximum (in CCCCCC) is reported as 376.01 nm; the absorption maximum (in CO) is given as 362 nm; the absorption maximum (in CS(C)=O) is recorded as 389.99 nm; the absorption maximum (in Cc1ccccc1) is 381.99 nm. Besides, the absorption maximum (in ClC(Cl)Cl) is 389.99 nm.
